According to patent US20220002314A1 (priority 2018, published 2022):
Where two headings read alike, the source gives them in different places.

Experiments:
[1] = target: Human α2δ-1 subunit of Cav2.2 calcium channel (Homo sapiens, UniProt P54289); experiment: biochemical; format: binding
Human μ-opioid receptor = Human μ-opioid receptor (Homo sapiens, UniProt P35372); experiment: biochemical; format: binding
Sequence of Human μ-opioid receptor (P35372 whole entry): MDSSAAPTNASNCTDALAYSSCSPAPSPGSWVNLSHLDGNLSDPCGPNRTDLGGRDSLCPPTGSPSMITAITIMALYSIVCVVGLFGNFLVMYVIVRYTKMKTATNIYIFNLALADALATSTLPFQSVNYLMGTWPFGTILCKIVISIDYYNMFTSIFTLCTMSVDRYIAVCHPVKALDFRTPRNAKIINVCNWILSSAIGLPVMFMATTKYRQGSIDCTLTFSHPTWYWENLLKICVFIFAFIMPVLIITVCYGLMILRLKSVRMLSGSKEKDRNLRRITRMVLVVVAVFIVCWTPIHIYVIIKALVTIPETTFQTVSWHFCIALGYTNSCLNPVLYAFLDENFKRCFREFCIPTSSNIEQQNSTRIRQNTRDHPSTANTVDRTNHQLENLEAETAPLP

Sequence of Human α2δ-1 subunit of Cav2.2 calcium channel (P54289 25-1103): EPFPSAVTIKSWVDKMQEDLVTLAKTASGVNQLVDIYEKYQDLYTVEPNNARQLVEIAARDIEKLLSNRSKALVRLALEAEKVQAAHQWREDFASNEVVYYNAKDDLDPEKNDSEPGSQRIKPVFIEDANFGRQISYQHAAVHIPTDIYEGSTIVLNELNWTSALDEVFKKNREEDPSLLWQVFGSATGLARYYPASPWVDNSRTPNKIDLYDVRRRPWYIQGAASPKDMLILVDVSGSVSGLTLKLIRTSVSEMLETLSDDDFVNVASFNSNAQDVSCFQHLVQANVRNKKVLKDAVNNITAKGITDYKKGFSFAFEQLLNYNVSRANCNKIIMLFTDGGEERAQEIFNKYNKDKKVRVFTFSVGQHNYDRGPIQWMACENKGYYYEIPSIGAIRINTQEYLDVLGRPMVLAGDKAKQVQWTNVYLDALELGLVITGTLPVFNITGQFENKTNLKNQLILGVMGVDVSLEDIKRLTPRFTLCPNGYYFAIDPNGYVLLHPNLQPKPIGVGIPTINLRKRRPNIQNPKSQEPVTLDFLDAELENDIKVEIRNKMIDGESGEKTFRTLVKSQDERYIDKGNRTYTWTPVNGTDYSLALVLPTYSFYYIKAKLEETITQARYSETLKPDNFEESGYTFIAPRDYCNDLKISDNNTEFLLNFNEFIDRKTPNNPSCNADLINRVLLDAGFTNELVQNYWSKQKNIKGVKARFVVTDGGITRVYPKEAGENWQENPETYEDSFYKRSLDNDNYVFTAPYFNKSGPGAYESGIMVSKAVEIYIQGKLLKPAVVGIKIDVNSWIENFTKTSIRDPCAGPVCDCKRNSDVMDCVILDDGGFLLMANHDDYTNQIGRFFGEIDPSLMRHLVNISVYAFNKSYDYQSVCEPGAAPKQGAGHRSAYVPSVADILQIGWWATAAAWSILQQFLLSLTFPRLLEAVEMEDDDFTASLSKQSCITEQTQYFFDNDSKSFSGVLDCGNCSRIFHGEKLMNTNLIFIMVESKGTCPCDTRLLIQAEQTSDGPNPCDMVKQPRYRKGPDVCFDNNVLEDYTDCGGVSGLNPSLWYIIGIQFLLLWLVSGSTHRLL

Ki ([1]; read-out: α2δ-1 binding) [nM] | Ki (Human μ-opioid receptor; read-out: μ-binding) [nM] | Structure (SMILES) | Ki [1] [nM] | Ki (Human μ-opioid receptor) [nM]
 |  | CCC[C@@H](c1nc2ncc(Br)cc2c(=O)n1CC1CC1)N1CCN[C@@H](C)C1 [Example 74, 6-Bromo-3-(cyclopropylmethyl)-2-((S)-1-((S)-3-methylpiperazin-1-yl)butyl)pyrido[2,3-d]pyrimidin-4(3H)-one] | > 5000 | > 500
 |  | CCCC(c1nc2cc(CO)ccc2c(=O)n1C)N1C[C@@H](C)N[C@@H](C)C1 (stereo partly drawn) [Example 172, 2-(1-((3S,5R)-3,5-Dimethylpiperazin-1-yl)butyl)-7-(hydroxymethyl)-3-methylquinazolin-4(3H)-one] | < 500 | > 500
 |  | CCC[C@@H](c1nc2ccc(Br)cc2c(=O)n1CC)N1CCN[C@@H](COC)C1 [Example 220, 6-bromo-3-ethyl-2-((S)-1-((R)-3-(methoxymethyl)piperazin-1-yl)butyl)quinazolin-4(3H)-one] | > 5000 | > 500
 |  | CCC[C@@H](c1nc2c(F)cc(OC)cc2c(=O)n1CC)N1CCN[C@@H](C)C1 [Example 45, 3-Ethyl-8-fluoro-6-methoxy-2-((S)-1-((S)-3-methylpiperazin-1-yl)butyl)quinazolin-4(3H)-one] | > 5000 | > 500
> 5000 | > 500 | CCC[C@H](c1nc2ccc(Br)cc2c(=O)n1CC)N1CCN[C@@H](CCC(=O)O)C1 [Example 108, 3-((S)-4-((R)-1-(6-bromo-3-ethyl-4-oxo-3,4-dihydroquinazolin-2-yl)butyl)piperazin-2-yl)propanoic acid] |  | 
 |  | CCC[C@H](c1nc2ccc(Cl)cc2c(=O)n1CC)N1CCN[C@H](CF)C1 [Example 229, 6-Chloro-3-ethyl-2-((R)-1-((S)-3-(fluoromethyl)piperazin-1-yl)butyl)quinazolin-4(3H)-one] | < 500 | > 500
 |  | CCC[C@@H](c1nc2ccc(Br)cc2c(=O)n1CC)N1C[C@@H](C)N[C@@H](C)C1 [Example 30, 6-bromo-2-((S)-1-((3S,5R)-3,5-dimethylpiperazin-1-yl)butyl)-3-ethylquinazolin-4(3H)-one] | 500 to 5000 | > 500
 |  | CCCC(c1nc2cc(Br)ccc2c(=O)n1C)N1C[C@@H](C)N[C@@H](C)C1 (stereo partly drawn) [Example 17, 7-bromo-2-(1-((3S,5R)-3,5-dimethylpiperazin-1-yl)butyl)-3-methylquinazolin-4(3H)-one] | < 500 | > 500
 |  | CCC[C@H](c1nc2ccc(O)cc2c(=O)n1CC)N1C[C@@H](C)N[C@@H](C)C1 [Example 35, 2-((R)-1-((3S,5R)-3,5-Dimethylpiperazin-1-yl)butyl)-3-ethyl-6-hydroxyquinazolin-4(3H)-one] | < 500 | > 500
 |  | CCC[C@H](c1nc2ccc(Br)cc2c(=O)n1CC)N1CCN[C@@H](CC)C1 [Example 212, 6-bromo-3-ethyl-2-((R)-1-((S)-3-ethylpiperazin-1-yl)butyl)quinazolin-4(3H)-one] | < 500 | > 500
 |  | CCCC(c1nc2ccc(CN(C)CC(C)C)cc2c(=O)n1CC)N1C[C@@H](C)N[C@@H](C)C1 (stereo partly drawn) [Example 184, 2-(1-((3S,5R)-3,5-dimethylpiperazin-1-yl)butyl)-3-ethyl-6-((isobutyl(methyl)amino)methyl)quinazolin-4(3H)-one] | < 500 | > 500
 |  | CCC[C@H](c1nc2ccccc2c(=O)n1CC)N1C[C@@H](C)N[C@@H](C)C1 [Example 34, 2-((R)-1-((3S,5R)-3,5-dimethylpiperazin-1-yl)butyl)-3-ethylquinazolin-4(3H)-one] | < 500 | > 500
 |  | CCC[C@@H](c1nc2ccc(Br)cc2c(=O)n1CC)[C@@H]1CCNCC1(F)F [Example 197, 6-bromo-2-((R)-1-((S)-3,3-difluoropiperidin-4-yl)butyl)-3-ethylquinazolin-4(3H)-one] | 500 to 5000 | > 500
 |  | CCCC(c1nc2cccc(Br)c2c(=O)n1CC)N1C[C@@H](C)N[C@@H](C)C1 (stereo partly drawn) [Example 14, 5-bromo-2-(1-((3S,5R)-3,5-dimethylpiperazin-1-yl)butyl)-3-ethylquinazolin-4(3H)-one] | < 500 | > 500
 |  | CCC[C@H](c1nc2ccccc2c(=O)n1C)N1C[C@@H](C)N[C@@H](C)C1 [Example 32, 2-((R)-1-((3S,5R)-3,5-dimethylpiperazin-1-yl)butyl)-3-methylquinazolin-4(3H)-one] | < 500 | > 500
 |  | CCCC(c1nc2ncc(Br)cc2c(=O)n1CC)N1C[C@@H](C)N[C@@H](C)C1 (stereo partly drawn) [Example 28, 6-bromo-2-(1-((3S,5R)-3,5-dimethylpiperazin-1-yl)butyl)-3-ethylpyrido[2,3-d]pyrimidin-4(3H)-one] | < 500 | > 500
500 to 5000 | > 500 | CCCC(C1=CCNCC1)c1nc2ccc(Br)cc2c(=O)n1CC (stereo not shown) [Example 188, 6-bromo-3-ethyl-2-(1-(1,2,3,6-tetrahydropyridin-4-yl)butyl)quinazolin-4(3H)-one] |  | 
 |  | CCC[C@H](c1nc2cc(F)c(Br)cc2c(=O)n1CC)N1CCN[C@H](C)C1 [Example 208, 6-bromo-3-ethyl-7-fluoro-2-((R)-1-((R)-3-methylpiperazin-1-yl)butyl)quinazolin-4(3H)-one] | < 500 | > 500

Ki ([1]; read-out: α2δ-1 binding) [nM] | Ki (Human μ-opioid receptor; read-out: μ-binding) [nM] | Structure (SMILES) | Ki [1] [nM] | Ki (Human μ-opioid receptor) [nM]
 |  | CCC[C@H](c1nc2ccc(Cl)cc2c(=O)n1CC)N1CCN[C@@H](C)C1 [Example 103, 6-Chloro-3-ethyl-2-((R)-1-((S)-3-methylpiperazin-1-yl)butyl)quinazolin-4(3H)-one] | < 500 | < 100
 |  | CCC[C@H](c1nc2ccc(Br)cc2c(=O)n1CC)N1C[C@@H](C)N[C@@H](C)C1 [Example 29, 6-bromo-2-((R)-1-((3S,5R)-3,5-dimethylpiperazin-1-yl)butyl)-3-ethylquinazolin-4(3H)-one] | < 500 | > 500
 |  | CCC[C@H](c1nc2ccc(F)c(F)c2c(=O)n1CC)N1CCN[C@@H](C)C1 [Example 218, 3-ethyl-5,6-difluoro-2-((R)-1-((S)-3-methylpiperazin-1-yl)butyl)quinazolin-4(3H)-one] | < 500 | 100 to 500
 |  | CCC[C@H](c1nc2cc(F)c(F)cc2c(=O)n1CC)N1CCN[C@@H](C)C1 [Example 216, 3-ethyl-6,7-difluoro-2-((R)-1-((S)-3-methylpiperazin-1-yl)butyl)quinazolin-4(3H)-one] | < 500 | 100 to 500
 |  | CCC[C@@H](c1nc2cc(F)c(Br)cc2c(=O)n1C)N1CCN[C@@H](C)C1 [Example 63, 6-bromo-7-fluoro-3-methyl-2-((S)-1-((S)-3-methylpiperazin-1-yl)butyl)quinazolin-4(3H)-one] | > 5000 | > 500
 |  | CCC[C@H](c1nc2cc(F)c(Br)cc2c(=O)n1C)N1CCN[C@@H](C)C1 [Example 62, 6-Bromo-7-fluoro-3-methyl-2-((R)-1-((S)-3-methylpiperazin-1-yl)butyl)quinazolin-4(3H)-one] | < 500 | 100 to 500
 |  | CCC[C@@H](c1nc2ccc(Br)cc2c(=O)n1CC)N1CCN(C)[C@H](C)C1 [Example 110, 6-bromo-2-((S)-1-((R)-3,4-dimethylpiperazin-1-yl)butyl)-3-ethylquinazolin-4(3H)-one] | > 5000 | > 500
 |  | CCC[C@H](c1nc2cc(O[C@@H](CNC)c3ccccc3)ccc2c(=O)n1C)N1C[C@@H](C)N[C@@H](C)C1 [Example 169, 2-((R)-1-((3S,5R)-3,5-dimethylpiperazin-1-yl)butyl)-3-methyl-7-((R)-2-(methylamino)-1-phenylethoxy)quinazolin-4(3H)-one] | 500 to 5000 | > 500
 |  | CCCC(c1nc2ccc(N3CCCC3)cc2c(=O)n1CC)N1C[C@@H](C)N[C@@H](C)C1 (stereo partly drawn) [Example 138, 2-(1-((3S,5R)-3,5-dimethylpiperazin-1-yl)butyl)-3-ethyl-6-(pyrrolidin-1-yl)quinazolin-4(3H)-one] | < 500 | > 500
 |  | CCC[C@H](c1nc2ccc(OC(F)(F)F)cc2c(=O)n1CC)N1CCN[C@@H](C)C1 [Example 204, 3-ethyl-2-((R)-1-((S)-3-methylpiperazin-1-yl)butyl)-6-(trifluoromethoxy)quinazolin-4(3H)-one] | < 500 | > 500
 |  | CCC[C@H](c1nc2c(F)cc(F)cc2c(=O)n1CC)N1CCNCC1 [Example 200, (R)-3-ethyl-6,8-difluoro-2-(1-(piperazin-1-yl)butyl)quinazolin-4(3H)-one] | < 500 | 100 to 500
 |  | CCC[C@H](c1nc2c(F)cc(Cl)cc2c(=O)n1CC)N1CCN[C@@H](C)C1 [Example 217, 6-chloro-3-ethyl-8-fluoro-2-((R)-1-((S)-3-methylpiperazin-1-yl)butyl)quinazolin-4(3H)-one] | < 500 | < 100
500 to 5000 | > 500 | CCCC(c1nc2ccccc2c(=O)n1CCN(C)C)N1C[C@@H](C)N[C@@H](C)C1 (stereo partly drawn) [Example 128, 3-(2-(Dimethylamino)ethyl)-2-(1-((3S,5R)-3,5-dimethylpiperazin-1-yl)butyl)quinazolin-4(3H)-one] |  | 
 |  | CCCC(c1nc2cc(Br)ccc2c(=O)n1CC)N1C[C@@H](C)N[C@@H](C)C1 (stereo partly drawn) [Example 9, 7-bromo-2-(1-((3S,5R)-3,5-dimethylpiperazin-1-yl)butyl)-3-ethylquinazolin-4(3H)-one] | < 500 | > 500
 |  | CCC[C@@H](c1nc2ccc(Cl)cc2c(=O)n1CC)N1CCN[C@H](C)C1 [Example 102, 6-chloro-3-ethyl-2-((S)-1-((R)-3-methylpiperazin-1-yl)butyl)quinazolin-4(3H)-one] | > 5000 | > 500
 |  | CCC[C@H](c1nc2ccc(OC)cc2c(=O)n1CC)N1CCN[C@H](C)C1 [Example 211, 3-ethyl-6-methoxy-2-((R)-1-((R)-3-methylpiperazin-1-yl)butyl)quinazolin-4(3H)-one] | < 500 | > 500
 |  | CCC[C@H](c1nc2ccc(Br)cc2c(=O)n1C)N1CCN[C@@H](C)C1 [Example 41, 6-Bromo-3-methyl-2-((R)-1-((S)-3-methylpiperazin-1-yl)butyl)quinazolin-4(3H)-one] | < 500 | 100 to 500
